Test results: EP0440324B1, “Substituted beta-diketones and their use in the treatment of inflammatory bowel disease” (ORION-YHTYMÄ OY, priority 1990, dated 1991)

System: TNB-induced chronic colitis
Assay: TNB-induced chronic colitis in the rat (damage score of the colon)
Format: in vivo, Wistar rats
Settings: damage score of chronic inflammation induced by TNB, colons scored 96 h after TNB
Method: 20 mg of TNB (2,4,6-trinitrobenzenesulfonic acid) in 50 % ethanol was administered into the lumen of the colon via a rubber catheter inserted rectally to Wistar rats. The test compounds were given rectally 1 h prior and 24, 48, 72 and 95 h after TNB. The rats were sacrificed 96 h after TNB and their colons were scored according to occurence of ulcers and inflammation. The number of animals in each group was at least 8. 5-ASA (5-aminosalicylic acid), a clinically used drug for the treatment of IBD was used as a reference compound.

[1] = dose 30 mg/kg rectally 1 h prior and 24, 48, 72 and 95 h after TNB

Row | Molecule | % inhibition against control [1] [%] | also measured
1 | 3-[(3,5-Dinitro-4-hydroxyphenyl)methylene]-2,4-pentanedione. [Example 9] | 40 | –
2 | 3-[3-(4-Methoxyphenyl)propenylene]-2,4-pentanedione [Example 11] | 32 | –
3 | 3-[(5-Nitrothienyl)methylene]-2,4-pentanedione [Example 13] | 58 | –
4 | CC(=O)C(=Cc1ccc(C(=O)NCCc2ccccc2)cc1)C(C)=O [Test compound 9, 3-[(4-(N-phenethyl)carboxamido-phenyl)methylene]-2,4-pentanedione] | – | inhibition in vivo at 10 mg/kg (Rattus norvegicus, dose 10 mg/kg rectally 1 h prior and 24, 48, 72 and 95 h after TNB, read-out: % inhibition against control): 60%; inhibition in vivo at 30 mg/kg (Rattus norvegicus, dose 30 mg/kg rectally 1 h prior and 24, 48, 72 and 95 h after TNB, read-out: % inhibition against control): 48%
5 | Nc1ccc(O)c(C(=O)O)c1 [5-ASA, 5-aminosalicylic acid, reference compound] | – | inhibition in vivo at 100 mg/kg (Rattus norvegicus, dose 100 mg/kg rectally 1 h prior and 24, 48, 72 and 95 h after TNB, read-out: % inhibition against control): 24%
